Data published in ChEMBL document CHEMBL5291721, “A preclinical secondary pharmacology resource illuminates target-adverse drug reaction associations of marketed drugs” (Nat Commun, 2023).

What was measured:
[1] = target: Voltage-gated inwardly rectifying potassium channel KCNH2 (Homo sapiens, UniProt Q12809); format: functional; conditions: read-out: AC50
[2] = target: T1, Alpha-2A adrenergic receptor (Homo sapiens, UniProt P08913)
T1 sequence (P08913 whole entry): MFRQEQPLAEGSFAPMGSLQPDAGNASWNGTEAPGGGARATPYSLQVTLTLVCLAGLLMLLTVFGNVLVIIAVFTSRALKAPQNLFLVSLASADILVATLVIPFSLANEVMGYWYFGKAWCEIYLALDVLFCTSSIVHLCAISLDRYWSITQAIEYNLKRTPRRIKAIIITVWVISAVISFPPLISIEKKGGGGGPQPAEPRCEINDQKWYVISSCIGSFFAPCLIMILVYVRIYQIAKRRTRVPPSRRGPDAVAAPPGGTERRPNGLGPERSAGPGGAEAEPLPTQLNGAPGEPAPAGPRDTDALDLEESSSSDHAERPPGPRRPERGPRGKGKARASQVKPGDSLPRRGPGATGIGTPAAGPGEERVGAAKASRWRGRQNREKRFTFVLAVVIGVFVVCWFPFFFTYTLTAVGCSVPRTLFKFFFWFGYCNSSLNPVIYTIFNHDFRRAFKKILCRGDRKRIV

[3] = target: T2, 5-hydroxytryptamine receptor 1A (Homo sapiens, UniProt P08908)
T2 sequence (P08908 whole entry): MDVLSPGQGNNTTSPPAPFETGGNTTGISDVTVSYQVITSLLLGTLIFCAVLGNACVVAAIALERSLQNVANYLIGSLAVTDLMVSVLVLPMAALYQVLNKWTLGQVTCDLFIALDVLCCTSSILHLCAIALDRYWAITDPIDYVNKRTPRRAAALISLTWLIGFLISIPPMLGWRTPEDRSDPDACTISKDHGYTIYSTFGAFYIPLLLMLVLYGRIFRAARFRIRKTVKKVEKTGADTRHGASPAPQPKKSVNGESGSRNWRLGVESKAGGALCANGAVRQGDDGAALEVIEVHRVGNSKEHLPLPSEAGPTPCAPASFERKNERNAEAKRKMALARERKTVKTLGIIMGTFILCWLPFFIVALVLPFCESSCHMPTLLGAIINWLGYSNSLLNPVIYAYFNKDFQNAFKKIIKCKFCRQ

[4] = target: D(3) dopamine receptor (Homo sapiens, UniProt P35462)
[5] = target: Mu-type opioid receptor (Homo sapiens, UniProt P35372)
[6] = target: Histamine H3 receptor (Homo sapiens, UniProt Q9Y5N1)
[7] = target: Prothrombin (Homo sapiens, UniProt P00734); format: functional
[8] = target: Sodium-dependent dopamine transporter (Homo sapiens, UniProt Q01959)
[9] = target: T3, Amine oxidase [flavin-containing] A (Homo sapiens, UniProt P21397); format: functional
T3 sequence (P21397 whole entry): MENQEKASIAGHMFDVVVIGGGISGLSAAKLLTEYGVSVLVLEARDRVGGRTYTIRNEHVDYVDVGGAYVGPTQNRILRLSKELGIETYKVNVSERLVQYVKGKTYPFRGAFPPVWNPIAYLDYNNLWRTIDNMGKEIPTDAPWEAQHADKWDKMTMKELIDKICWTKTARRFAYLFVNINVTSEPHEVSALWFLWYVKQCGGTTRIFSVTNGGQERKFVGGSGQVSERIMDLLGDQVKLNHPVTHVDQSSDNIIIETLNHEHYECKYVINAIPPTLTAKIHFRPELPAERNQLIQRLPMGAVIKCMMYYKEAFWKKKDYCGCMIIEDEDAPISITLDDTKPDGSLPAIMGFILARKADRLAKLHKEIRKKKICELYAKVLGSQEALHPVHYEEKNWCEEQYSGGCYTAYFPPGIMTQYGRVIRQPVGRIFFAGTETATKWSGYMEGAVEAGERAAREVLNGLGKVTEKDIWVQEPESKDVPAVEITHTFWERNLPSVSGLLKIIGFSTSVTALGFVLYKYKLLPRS

[10] = target: T4, Muscarinic acetylcholine receptor M2 (Homo sapiens, UniProt P08172)
T4 sequence (P08172 whole entry): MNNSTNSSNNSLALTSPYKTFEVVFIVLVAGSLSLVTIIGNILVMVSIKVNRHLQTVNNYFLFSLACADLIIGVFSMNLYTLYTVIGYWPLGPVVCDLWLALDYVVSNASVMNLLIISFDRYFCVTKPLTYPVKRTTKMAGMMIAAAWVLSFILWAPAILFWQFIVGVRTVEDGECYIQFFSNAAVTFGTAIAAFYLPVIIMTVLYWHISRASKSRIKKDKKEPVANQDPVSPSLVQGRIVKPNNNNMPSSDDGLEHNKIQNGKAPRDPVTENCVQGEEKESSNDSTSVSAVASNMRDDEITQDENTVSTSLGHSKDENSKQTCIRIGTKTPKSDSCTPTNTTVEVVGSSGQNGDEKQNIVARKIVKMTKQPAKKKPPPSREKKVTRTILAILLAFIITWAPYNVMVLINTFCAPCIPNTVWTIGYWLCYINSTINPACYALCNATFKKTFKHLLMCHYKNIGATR

[11] = target: Sodium-dependent noradrenaline transporter (Homo sapiens, UniProt P23975)
[12] = target: T5, Alpha-1A adrenergic receptor (Homo sapiens, UniProt P35348); format: functional, cell-based
T5 sequence (P35348 whole entry): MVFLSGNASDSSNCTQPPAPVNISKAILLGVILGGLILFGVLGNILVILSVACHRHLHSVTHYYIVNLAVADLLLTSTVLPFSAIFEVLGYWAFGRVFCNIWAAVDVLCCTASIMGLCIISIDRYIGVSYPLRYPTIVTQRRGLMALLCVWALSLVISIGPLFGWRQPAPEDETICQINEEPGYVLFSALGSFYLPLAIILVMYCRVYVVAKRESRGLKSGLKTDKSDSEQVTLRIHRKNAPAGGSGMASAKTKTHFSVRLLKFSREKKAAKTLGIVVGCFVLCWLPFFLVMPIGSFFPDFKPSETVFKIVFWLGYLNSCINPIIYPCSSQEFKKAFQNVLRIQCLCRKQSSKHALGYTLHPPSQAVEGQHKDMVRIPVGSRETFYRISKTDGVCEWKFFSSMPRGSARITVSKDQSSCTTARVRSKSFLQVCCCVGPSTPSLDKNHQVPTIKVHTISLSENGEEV

[13] = target: 3',5'-cyclic-AMP phosphodiesterase 4A (Homo sapiens, UniProt P27815); format: functional
[14] = target: D(1A) dopamine receptor (Homo sapiens, UniProt P21728)
Further: assay procedure not described here.

Sequence of Sodium-dependent noradrenaline transporter (P23975 whole entry): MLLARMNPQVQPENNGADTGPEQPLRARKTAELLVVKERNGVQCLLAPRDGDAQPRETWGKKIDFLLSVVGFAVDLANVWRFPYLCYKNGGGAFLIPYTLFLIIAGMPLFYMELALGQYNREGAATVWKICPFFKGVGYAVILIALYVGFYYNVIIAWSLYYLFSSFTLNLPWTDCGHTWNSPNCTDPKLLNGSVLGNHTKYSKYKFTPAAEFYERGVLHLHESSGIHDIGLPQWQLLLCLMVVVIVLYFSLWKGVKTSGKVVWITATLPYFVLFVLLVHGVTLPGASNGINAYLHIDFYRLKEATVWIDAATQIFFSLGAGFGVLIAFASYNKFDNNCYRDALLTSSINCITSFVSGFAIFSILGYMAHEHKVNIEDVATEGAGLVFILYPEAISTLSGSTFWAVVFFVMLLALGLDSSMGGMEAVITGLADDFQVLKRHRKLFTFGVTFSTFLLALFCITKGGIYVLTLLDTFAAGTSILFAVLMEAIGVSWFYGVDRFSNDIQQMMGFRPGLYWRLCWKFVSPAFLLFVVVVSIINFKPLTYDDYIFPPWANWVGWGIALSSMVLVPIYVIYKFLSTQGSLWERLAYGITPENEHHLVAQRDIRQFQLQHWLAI
Sequence of Sodium-dependent dopamine transporter (Q01959 whole entry): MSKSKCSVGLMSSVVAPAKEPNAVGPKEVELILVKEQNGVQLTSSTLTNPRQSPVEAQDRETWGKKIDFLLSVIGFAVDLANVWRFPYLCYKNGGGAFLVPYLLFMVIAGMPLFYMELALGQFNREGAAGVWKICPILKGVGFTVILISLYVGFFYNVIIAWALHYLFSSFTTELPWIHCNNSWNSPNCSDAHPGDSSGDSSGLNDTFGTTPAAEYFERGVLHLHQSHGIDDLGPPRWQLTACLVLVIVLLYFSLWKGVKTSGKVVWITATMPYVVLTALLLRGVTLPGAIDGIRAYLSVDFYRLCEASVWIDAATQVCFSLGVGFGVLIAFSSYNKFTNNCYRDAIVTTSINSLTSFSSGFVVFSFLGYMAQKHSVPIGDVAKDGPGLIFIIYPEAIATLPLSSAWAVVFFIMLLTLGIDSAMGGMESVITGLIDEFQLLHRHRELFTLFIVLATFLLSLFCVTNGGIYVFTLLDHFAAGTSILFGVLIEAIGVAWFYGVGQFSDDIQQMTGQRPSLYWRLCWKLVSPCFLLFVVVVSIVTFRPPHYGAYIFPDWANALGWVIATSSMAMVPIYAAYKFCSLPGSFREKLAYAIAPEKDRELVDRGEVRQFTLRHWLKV
Sequence of Histamine H3 receptor (Q9Y5N1 whole entry): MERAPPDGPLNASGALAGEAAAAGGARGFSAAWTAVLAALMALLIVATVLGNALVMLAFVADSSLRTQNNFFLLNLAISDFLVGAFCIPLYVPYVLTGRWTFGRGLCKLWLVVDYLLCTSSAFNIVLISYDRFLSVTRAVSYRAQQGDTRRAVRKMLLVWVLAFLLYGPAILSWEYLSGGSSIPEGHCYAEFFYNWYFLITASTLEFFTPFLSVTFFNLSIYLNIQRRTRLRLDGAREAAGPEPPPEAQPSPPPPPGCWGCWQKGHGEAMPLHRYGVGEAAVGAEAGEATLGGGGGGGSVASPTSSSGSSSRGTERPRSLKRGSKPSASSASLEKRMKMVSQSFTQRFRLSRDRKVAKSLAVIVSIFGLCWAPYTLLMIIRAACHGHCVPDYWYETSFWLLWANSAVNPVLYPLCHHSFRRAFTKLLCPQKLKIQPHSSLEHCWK
Sequence of Voltage-gated inwardly rectifying potassium channel KCNH2 (Q12809 whole entry): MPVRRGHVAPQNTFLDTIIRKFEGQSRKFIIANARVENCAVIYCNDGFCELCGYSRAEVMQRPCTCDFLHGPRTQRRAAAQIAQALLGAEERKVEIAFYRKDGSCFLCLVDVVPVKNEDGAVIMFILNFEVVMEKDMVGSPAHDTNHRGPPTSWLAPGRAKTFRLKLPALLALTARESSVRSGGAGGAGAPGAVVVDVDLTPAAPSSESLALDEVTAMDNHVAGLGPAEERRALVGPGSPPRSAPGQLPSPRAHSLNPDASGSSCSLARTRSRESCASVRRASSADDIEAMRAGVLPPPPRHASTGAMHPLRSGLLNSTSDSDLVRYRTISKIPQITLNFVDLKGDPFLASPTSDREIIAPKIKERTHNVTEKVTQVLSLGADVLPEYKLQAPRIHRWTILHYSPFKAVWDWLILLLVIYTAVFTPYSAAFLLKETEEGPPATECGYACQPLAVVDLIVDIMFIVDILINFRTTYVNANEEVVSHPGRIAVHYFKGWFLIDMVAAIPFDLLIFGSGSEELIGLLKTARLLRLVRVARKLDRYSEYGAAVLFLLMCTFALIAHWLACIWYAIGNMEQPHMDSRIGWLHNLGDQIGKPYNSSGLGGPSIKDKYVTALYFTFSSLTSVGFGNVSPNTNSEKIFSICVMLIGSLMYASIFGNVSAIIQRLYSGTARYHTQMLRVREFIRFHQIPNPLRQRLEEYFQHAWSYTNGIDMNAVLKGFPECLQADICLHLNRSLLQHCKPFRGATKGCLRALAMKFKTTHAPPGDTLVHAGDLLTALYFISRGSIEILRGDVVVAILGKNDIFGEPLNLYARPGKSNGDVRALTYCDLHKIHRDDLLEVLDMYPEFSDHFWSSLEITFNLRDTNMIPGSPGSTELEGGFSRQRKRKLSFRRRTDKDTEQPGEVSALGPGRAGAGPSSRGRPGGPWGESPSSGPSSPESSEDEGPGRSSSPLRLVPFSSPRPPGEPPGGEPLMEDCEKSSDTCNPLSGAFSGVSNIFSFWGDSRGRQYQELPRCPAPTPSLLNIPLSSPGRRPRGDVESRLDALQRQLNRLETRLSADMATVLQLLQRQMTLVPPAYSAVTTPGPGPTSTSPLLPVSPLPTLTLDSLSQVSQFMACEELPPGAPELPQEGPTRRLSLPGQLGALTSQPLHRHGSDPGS
Sequence of D(1A) dopamine receptor (P21728 whole entry): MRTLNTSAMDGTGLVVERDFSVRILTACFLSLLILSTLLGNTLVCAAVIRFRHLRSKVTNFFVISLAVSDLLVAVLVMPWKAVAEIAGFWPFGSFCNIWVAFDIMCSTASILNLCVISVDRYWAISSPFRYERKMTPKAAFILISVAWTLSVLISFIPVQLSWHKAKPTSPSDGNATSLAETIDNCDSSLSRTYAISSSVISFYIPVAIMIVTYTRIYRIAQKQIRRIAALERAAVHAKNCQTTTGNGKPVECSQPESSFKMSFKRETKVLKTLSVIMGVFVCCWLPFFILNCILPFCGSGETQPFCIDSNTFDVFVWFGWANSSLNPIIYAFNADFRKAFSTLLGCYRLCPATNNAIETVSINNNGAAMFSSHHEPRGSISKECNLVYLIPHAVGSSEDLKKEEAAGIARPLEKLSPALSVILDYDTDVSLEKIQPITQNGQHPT
Sequence of Mu-type opioid receptor (P35372 whole entry): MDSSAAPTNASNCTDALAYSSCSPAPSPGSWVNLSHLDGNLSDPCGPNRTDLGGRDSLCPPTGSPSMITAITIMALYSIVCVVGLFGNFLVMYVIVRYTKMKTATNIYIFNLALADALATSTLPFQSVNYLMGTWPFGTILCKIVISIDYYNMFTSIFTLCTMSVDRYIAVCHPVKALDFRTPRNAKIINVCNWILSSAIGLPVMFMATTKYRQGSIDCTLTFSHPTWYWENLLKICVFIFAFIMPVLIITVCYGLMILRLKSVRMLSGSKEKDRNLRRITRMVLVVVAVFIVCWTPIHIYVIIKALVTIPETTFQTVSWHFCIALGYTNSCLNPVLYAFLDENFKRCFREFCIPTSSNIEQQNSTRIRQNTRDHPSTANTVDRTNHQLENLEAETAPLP
Sequence of 3',5'-cyclic-AMP phosphodiesterase 4A (P27815 whole entry): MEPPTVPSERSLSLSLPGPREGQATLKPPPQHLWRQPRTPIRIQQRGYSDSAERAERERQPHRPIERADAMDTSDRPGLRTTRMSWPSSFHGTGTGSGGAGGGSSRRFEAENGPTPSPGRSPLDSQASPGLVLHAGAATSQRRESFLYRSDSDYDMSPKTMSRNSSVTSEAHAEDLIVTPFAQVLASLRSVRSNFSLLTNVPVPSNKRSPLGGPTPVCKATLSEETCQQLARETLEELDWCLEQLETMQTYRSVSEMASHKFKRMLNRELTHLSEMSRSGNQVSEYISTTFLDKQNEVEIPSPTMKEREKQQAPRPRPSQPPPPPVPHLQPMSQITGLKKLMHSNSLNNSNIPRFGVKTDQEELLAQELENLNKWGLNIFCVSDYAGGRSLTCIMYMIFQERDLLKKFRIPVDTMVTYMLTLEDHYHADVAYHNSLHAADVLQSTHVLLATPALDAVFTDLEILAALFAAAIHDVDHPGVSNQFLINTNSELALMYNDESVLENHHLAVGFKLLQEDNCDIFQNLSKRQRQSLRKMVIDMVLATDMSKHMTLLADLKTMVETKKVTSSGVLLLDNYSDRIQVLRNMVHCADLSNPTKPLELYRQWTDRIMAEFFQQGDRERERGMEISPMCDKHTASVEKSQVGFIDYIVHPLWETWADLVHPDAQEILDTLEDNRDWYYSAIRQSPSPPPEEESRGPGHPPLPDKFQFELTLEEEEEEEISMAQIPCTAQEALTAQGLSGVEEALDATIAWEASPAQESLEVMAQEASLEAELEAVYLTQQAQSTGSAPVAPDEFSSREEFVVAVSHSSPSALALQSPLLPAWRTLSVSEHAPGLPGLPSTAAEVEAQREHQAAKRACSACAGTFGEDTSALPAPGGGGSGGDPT
Sequence of D(3) dopamine receptor (P35462 whole entry): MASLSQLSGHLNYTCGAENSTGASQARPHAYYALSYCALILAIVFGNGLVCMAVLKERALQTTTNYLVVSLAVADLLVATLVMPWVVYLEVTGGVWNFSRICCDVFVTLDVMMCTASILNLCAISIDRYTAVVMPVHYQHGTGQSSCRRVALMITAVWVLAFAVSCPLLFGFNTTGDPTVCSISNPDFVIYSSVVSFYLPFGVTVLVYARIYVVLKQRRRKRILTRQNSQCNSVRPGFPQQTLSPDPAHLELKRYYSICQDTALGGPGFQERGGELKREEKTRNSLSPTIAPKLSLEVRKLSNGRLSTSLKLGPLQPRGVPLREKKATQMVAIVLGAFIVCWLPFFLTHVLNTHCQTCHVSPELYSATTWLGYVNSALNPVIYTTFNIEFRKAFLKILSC

Row | SMILES | AC50 [1] | AC50 [2] | AC50 [3] | AC50 [4] | AC50 [5] | AC50 [6] | AC50 [7] | AC50 [8] | AC50 [9] | AC50 [10] | AC50 [11] | AC50 [12] | AC50 [13] | AC50 [14]
1 | O=[N+]([O-])O[C@H]1CO[C@H]2[C@@H]1OC[C@H]2O[N+](=O)[O-] [ISOSORBIDE DINITRATE] | > 30 µM | > 30 µM | > 30 µM | > 30 µM | > 30 µM | > 30 µM | > 30 µM | > 30 µM | > 30 µM | > 30 µM | > 30 µM | > 30 µM | > 30 µM | > 30 µM
2 | NC(=O)NCCC[C@H](N)C(=O)O [L-CITRULLINE] | > 30 µM | > 30 µM | > 30 µM | > 30 µM | > 30 µM | > 30 µM | > 30 µM | > 30 µM | > 30 µM | > 30 µM | > 30 µM | > 30 µM | > 30 µM | > 30 µM
3 | CC(=O)O[C@H]1C[C@H](O[C@H]2[C@@H](O)C[C@H](O[C@H]3[C@@H](O)C[C@H](O[C@H]4CC[C@@]5(C)[C@H](CC[C@@H]6[C@@H]5C[C@@H](O)[C@]5(C)[C@@H](C7=CC(=O)OC7)CC[C@]65O)C4)O[C@@H]3C)O[C@@H]2C)O[C@H](C)[C@H]1O[C@@H]1O[C@H](CO)[C@@H](O)[C@H](O)[C@H]1O [LANATOSIDE C] | > 30 µM | > 30 µM | > 30 µM | > 30 µM | > 30 µM | > 30 µM | > 30 µM | > 30 µM | > 30 µM | > 30 µM | > 30 µM | > 30 µM | > 30 µM | > 30 µM
4 | Nc1nc(N)nc(Nc2ccc([As]3SCC(CO)S3)cc2)n1 (stereo not drawn) [MELARSOPROL] | > 10 µM | > 30 µM | > 30 µM | > 30 µM | > 30 µM | > 30 µM | > 30 µM | 29.2 µM | > 30 µM | > 30 µM | > 30 µM | > 30 µM | 14.5 µM | > 30 µM
5 | Cc1cc(CCN2CCN(c3cccc(Cl)c3)CC2)n[nH]1 [MEPIPRAZOLE] | 2.71 µM | 4.52 µM | 0.003 µM | 0.0358 µM | 15.7 µM | > 30 µM | > 30 µM | 8.04 µM | > 30 µM | > 30 µM | > 30 µM | 0.43 µM | > 30 µM | 0.591 µM
6 | CC[N+](C)(CC)CCOC(=O)C1c2ccccc2Oc2ccccc21 [METHANTHELINE] | 11 µM | > 30 µM | > 30 µM | > 30 µM | > 30 µM | > 30 µM | > 30 µM | > 30 µM | > 30 µM | 0.0126 µM | > 30 µM | > 30 µM | > 30 µM | > 30 µM
7 | CO[C@H]1[C@@H](O)C[C@H](O[C@H]2[C@@H](O)C[C@H](O[C@H]3[C@@H](O)C[C@H](O[C@H]4CC[C@@]5(C)[C@H](CC[C@@H]6[C@@H]5C[C@@H](O)[C@]5(C)[C@@H](C7=CC(=O)OC7)CC[C@]65O)C4)O[C@@H]3C)O[C@@H]2C)O[C@@H]1C [METILDIGOXIN] | > 30 µM | > 30 µM | > 30 µM | > 30 µM | > 30 µM | > 30 µM | > 30 µM | > 30 µM | > 30 µM | > 30 µM | > 30 µM | > 30 µM | > 30 µM | > 30 µM
8 | CCOC(=O)[C@H](CCc1ccccc1)N[C@@H](C)C(=O)N1Cc2cc(OC)c(OC)cc2C[C@H]1C(=O)O [MOEXIPRIL] | > 30 µM | > 30 µM | > 30 µM | > 30 µM | > 30 µM | > 30 µM | > 30 µM | > 30 µM | > 30 µM | > 30 µM | > 30 µM | > 30 µM | > 30 µM | > 30 µM
9 | CCN(CC)CCOC(=O)C(Cc1cccc2ccccc12)CC1CCCO1 (stereo not drawn) [NAFRONYL] | 6.9 µM | > 30 µM | > 30 µM | 10.1 µM | 7.16 µM | > 30 µM | > 30 µM | > 30 µM | > 30 µM | 0.199 µM | > 30 µM | > 30 µM | > 30 µM | 23.5 µM
10 | CNC(=O)Oc1ccc2c(c1)[C@]1(C)CCN(C)[C@@H]1N2C [PHYSOSTIGMINE] | > 30 µM | > 30 µM | > 30 µM | > 30 µM | 5.74 µM | > 30 µM | > 30 µM | > 30 µM | > 30 µM | > 30 µM | > 30 µM | > 30 µM | > 30 µM | > 30 µM
11 | C1CNCCN1 [PIPERAZINE] | > 30 µM | > 30 µM | > 30 µM | > 30 µM | > 30 µM | > 30 µM | > 30 µM | > 30 µM | > 30 µM | > 30 µM | > 30 µM | > 30 µM | 28.4 µM | > 30 µM
12 | COCCCOc1ccnc(C[S+]([O-])c2nc3ccccc3[nH]2)c1C (stereo not drawn) [RABEPRAZOLE] | 5.33 µM | > 30 µM | 12.8 µM | > 30 µM | 7.93 µM | > 30 µM | > 30 µM | > 30 µM | > 30 µM | > 30 µM | 17.9 µM | > 30 µM | > 30 µM | > 30 µM
